Experimental data: patent publication EP0563345B1, “NOVEL 4-ARYLPIPERAZINES AND 4-ARYLPIPERIDINES” (MCNEILAB, INC., priority 1991, dated 1993)
Structures can show the parent of a compound that is named as a salt. Where two headings read alike, the source gives them in different places.

Key:
[1] = Overall statement on the other non-antipsychotic screens; settings: screens in which they have been tested to date
Description: (§1) The antipsychotic activity of the compounds of the invention may be determined by the Block of Conditioned Avoidance Responding (Rat) test (CAR), references being Cook, L. and E. Weidley in Ann.

[2] = biological target: T1, D-2 (dopamine-2) receptors (Rattus norvegicus, UniProt P61169); test: biochemical; assay type: binding, male, Wistar rats; settings: rat striatum P2 fraction, 3H-spiperone 0.05 nM; read-out: Receptor Binding (Ki nM) D2
T1 construct: The D2 assay employed a P2 fraction from the striatum, the ligand ^3H-spiperone at a concentration of 0.05 nM; from tissue; host or cells: rat striatum, P2 fraction (synaptosomal membranes), male Wistar rats
T1 sequence (P61169 whole entry): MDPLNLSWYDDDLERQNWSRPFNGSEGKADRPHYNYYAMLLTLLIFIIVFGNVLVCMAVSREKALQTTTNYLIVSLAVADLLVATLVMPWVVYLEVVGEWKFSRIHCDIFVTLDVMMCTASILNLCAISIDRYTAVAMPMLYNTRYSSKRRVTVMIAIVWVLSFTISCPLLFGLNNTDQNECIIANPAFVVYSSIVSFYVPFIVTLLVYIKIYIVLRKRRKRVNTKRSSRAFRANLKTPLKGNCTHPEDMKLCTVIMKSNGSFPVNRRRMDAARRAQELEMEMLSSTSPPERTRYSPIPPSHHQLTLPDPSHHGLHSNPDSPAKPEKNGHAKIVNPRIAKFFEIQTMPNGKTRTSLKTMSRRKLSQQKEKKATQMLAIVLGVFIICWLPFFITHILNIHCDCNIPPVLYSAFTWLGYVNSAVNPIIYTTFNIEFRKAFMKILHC
Method: The dopamine D2 binding activity of compounds was determined using a P2 fraction (synaptosomal membranes) prepared from male, Wistar rats.
The data from this assay were analyzed by calculating the percent inhibition of the binding of the tritiated ligands by given concentrations of the test compound. Kl values, where given, were obtained from the logit analysis of concentration-inhibition curves.

[3] = Overall statement on the antipsychotic screens (CAR test and D-2 affinity); settings: as far as tested
Description: as §1

[4] = test system: Male, Fischer 344 rats; test: Block of Conditioned Avoidance Responding (Rat) test (CAR); settings: for CAR 15 mg/kg IP Administration (% change CAR) / CAR 5 mg/kg IP Administration (% change CAR): negative number = blockade of CAR
Summary of the method: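 Trained rats at 90% avoidance ran 60-trial sessions with a 15-sec light/tone conditioned stimulus, then a 0.7 mA shock. Vehicle was given on Day 1 and test compound on Day 2, with matched route and pretreatment time. The % change in CAR versus Day 1 and % escape failures are group means, with escape loss at 5 mg/kg unless noted.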

[5] = test system: Male Charles-River rats; test: Rat Glass Bead Test (propulsive motility of the distal colon); assay type: in vivo; settings: mean expulsion time of glass bead
Method: The rat glass bead test is used to evaluate the action of compounds on propulsive motility of the distal colon. Male Charles-River rats weighing 50-90 grams are fasted for at least 18 hours in individual cages with water provided. Groups of rats are then dosed by the indicated route at the appropriate pretreatment time. A 4 mm glass bead is then inserted 3.5 cm into the distal colon through the anus using a 4 mm diameter glass rod. Rats are then placed in open top glass jars and observed for 60 minutes. The time for expulsion of the bead is noted for each rat. Rats not expelling the bead after 60 minutes are necropsied and the presence of the bead in the colon confirmed. […] Statistical analysis is done using one way analysis of variance and Fisher's LSD comparison. A probability of less than 0.05 is considered to be statistically significant.

[6] = test system: spontaneously hypertensive rats (SHR model); test: Spontaneously Hypertensive Rat Test (SHR); assay type: in vivo; settings: 30 mg/kg p.o.
Method: Compounds #37 and 87 were also evaluated in the fully recovered, unanesthetized, unrestrained spontaneously hypertensive rats (SHR model) which is described hereinafter. They were deemed to be active because at doses of 30 mg/kg p.o. they caused a drop in the mean arterial pressure. For compound #37 the drop was 26 mm of mercury with an onset of 0.5 h and a duration of 3.5 h. For compound no. 87 the drop was 37 mm of mercury with an onset of 0.25 h and a duration of 5.75 h.
Adult male 350-450 g SHR [Tac:N(SHR)FBR], Taconic Farms, Germantown, New York are prepared for direct measurement of arterial pressure, housed in individual cages, and maintained on constant intraarterial infusion to assure catheter patency. Rats are permitted a 7-day postoperative recovery period to allow complete restoration of salt/water balance and body weight. Rats are assigned to vehicle or drug treatment groups (n=3/group). Drugs are uniformly suspended in 1% methylcellulose vehicle and given orally by gavage. Parameters are sampled continuously from the conscious, unrestrained rats and averaged every 15 min for the first 2 h and then hourly through 24 h after dosing. In order to take diurnal changes that are not drug related into account, 24 h timecourse curves for each parameter in drug treated SHR are compared to those from the concurrent control group. Since the average standard between-subject error is about 5 mm of mercury for arterial pressure parameters and about 11 bpm for heart rate, differences from concurrent control of greater than 10 mm of mercury and 22 bpm (2 SEM) are considered drug-related activity. Onset and duration are calculated from any pattern that achieves a maximum difference that meets these criteria.

[7] = test system: male, Sprague-Dawley rats; test: Catalepsy Test in Rats; settings: 50 mg/kg IP
Method: The catalepsy test is taken to evaluate the liability of anti-psychotics to produce extra-pyramidal side effects.
The forepaws of male, Sprague-Dawley rats obtained from Charles River (170-240 g) were gently placed on a black cork (3.5 cm high) and the time until the forepaw was removed was recorded. Each rat was given three trials with a maximum time of 60 sec on the cork. The sum of the three trials was taken as the score for each rat. Percent catalepsy was defined as the percent of 180 sec (maximum time) that a rat permitted its forepaw to rest on the cork. […] In each test session, two control groups were used; animals treated with saline (or vehicle) served as a negative control and animals treated with haloperidol were a positive control.

[8] = test system: apomorphine-induced emesis in the dog; test: Block of Apomorphine-Induced Emesis In Dogs; assay type: in vivo; settings: for ED50: Canis lupus familiaris, read-out: ED50 and 95% confidence limits, apomorphine HCl 1 mg/kg s.c.; for inhibition of apomorphine-induced emesis in the dog: in vivo
Method: This latter test is used in the preclinical evaluation of antipsychotics, and it also implies that the compounds could be used clinically for the treatment of emesis.
This procedure was modified from that described in Janssen, P. A. J.; Niemegeers, C. J. E.; Schellekens, K. Arzn.-Forch. […] The animals were treated with a test dose of apomorphine HCI to produce retching, and the effectiveness of a test compound in blocking that retching is determined. […] Following one of several pretreatments, a challenge dose of 1 mg/kg apomorphine HCl s.c. was given and the number of retches that occurred during the following 20 min period was recorded. At the start of the series, and after one week on testing, all dogs were pretreated with saline before the challenge dose of apomorphine HCI was administered. All of the saline-pretreated animals retched. […] Data were analyzed to determine the ED50 dose for blocking apomorphine HCI-induced emesis.

[9] = intravenous (IV) administration
[10] = oral administration, 1 h pretreatment
[11] = oral administration, 4 h pretreatment

Structure (SMILES)	Ki [2] [nM]	potential antipsychotic activity in either of the screens [3]	CAR 5 mg/kg IP Administration (% change CAR) [4] [%]	(Escape Loss) % failures to escape ([4]; at CAR 5 mg/kg IP) [%]	Catalepsy (%) ([7]; Pre-Reaction Time 60 min)	Glass bead expulsion time ([5]; IP, 1.0 mg/kg) [min]	other results
CC1CN(Cc2cccc(C(=O)N3CCCCC3)c2)CCN1c1ccccc1 (stereo not shown) [Compound 8]	> 1000	not exhibited potential antipsychotic activity					activity in any of the other non-antipsychotic screens [1]: not exhibited activity
O=C(c1cccc(CN2CCN(c3ncccn3)CC2)c1)N1CCC[C@H]1CO [Compound 20]	> 1000	not exhibited potential antipsychotic activity					activity in any of the other non-antipsychotic screens [1]: not exhibited activity; CAR 15 mg/kg IP Administration (% change CAR) [4]: -17%; (Escape Loss) % failures to escape ([4]; at CAR 15 mg/kg IP): 1%
CC(C)Oc1ccccc1N1CCN(Cc2cccc(C(=O)N3CCCCC3C(=O)O)c2)CC1 (stereo not shown) [Compound 24]	> 1000	not exhibited potential antipsychotic activity					activity in any of the other non-antipsychotic screens [1]: not exhibited activity
CC(O)COc1ccccc1N1CCN(Cc2cccc(C(=O)N3CCCCC3)c2)CC1 (stereo not shown) [Compound 27]	703	not exhibited potential antipsychotic activity					CAR 15 mg/kg IP Administration (% change CAR) [4]: -8%; (Escape Loss) % failures to escape ([4]; at CAR 15 mg/kg IP): 0%
O=C(c1cccc(CN2CCN(c3ccc4c(c3)OCO4)CC2)c1)N1CCCCC1 [Compound 36]	> 1000	not exhibited potential antipsychotic activity	-10	0			Glass bead expulsion time ([5]; PO, 10.0 mg/kg): 7.4 min
O=C(c1cccc(CN2CCN(c3ncccn3)CC2)c1)N1CCCCC1 [Compound 37]	> 1000	not exhibited potential antipsychotic activity	-18	1			activity in the SHR model [6]: active; drop in the mean arterial pressure [6]: 26 mm of mercury; duration of the drop in mean arterial pressure [6]: 3.5 h; onset of the drop in mean arterial pressure [6]: 0.5 h; Glass bead expulsion time ([5]; PO, 10.0 mg/kg): 25 min
CC(C)Oc1ccccc1C1CCN(Cc2cccc(C(=O)N3CCCCCC3)c2)CC1 [Compound 39]	1.2		-86	2	17.3		
COc1ccc(OC)c(N2CCN(Cc3cccc(C(=O)N4CCCC4)c3)CC2)c1 [Compound 47]	> 1000	not exhibited potential antipsychotic activity					activity in any of the other non-antipsychotic screens [1]: not exhibited activity; CAR 15 mg/kg IP Administration (% change CAR) [4]: 2%; (Escape Loss) % failures to escape ([4]; at CAR 15 mg/kg IP): 0%
COc1cccc(OC)c1N1CCN(Cc2cccc(C(=O)N3CCCCC3)c2)CC1 [Compound 48]	> 1000	not exhibited potential antipsychotic activity				14	activity in any of the other non-antipsychotic screens [1]: not exhibited activity; CAR 15 mg/kg IP Administration (% change CAR) [4]: -1%; (Escape Loss) % failures to escape ([4]; at CAR 15 mg/kg IP): 1%
CC(C)Oc1ccccc1N1CCN(Cc2cccc(C(=O)N3CCCCC3)c2)CC1 [Compound 53, 1-[3-[[4-[2-(1-Methylethoxy)phenyl]-1-piperazinyl]methyl]benzoyl]piperidine Hydrochloride (3:2)]					32.4		Catalepsy (%) ([7]; Pre-Reaction Time 240 min): 47.9%; CAR IP Administration (% change CAR) at 7.5 mg/kg ([4]; 7.5 mg/kg IP): -91%; (Escape Loss) % failures to escape ([4]; at CAR 7.5 mg/kg IP): 8%; ED50 [8, 9]: 0.03 mg/kg; ED50 [8, 10]: 0.038 mg/kg; ED50 [8, 11]: 0.263 mg/kg; inhibition of apomorphine-induced emesis in the dog [8]: particularly potent inhibitors
CC(C)Oc1ccccc1N1CCN(Cc2cccc(C(=O)N3CCCCCC3)c2)CC1.Cl [Compound 54, Hexahydro-1-[3-[[4-[2-(1-methylethoxy)phenyl]-1-piperazinyl]methyl]-benzoyl]-1H-azepine monohydrochloride]			-88	5		16	ED50 [8, 9]: 0.019 mg/kg; ED50 [8, 10]: 0.047 mg/kg; ED50 [8, 11]: 0.251 mg/kg; inhibition of apomorphine-induced emesis in the dog [8]: particularly potent inhibitors
CC(C)Oc1cc(F)ccc1N1CCN(Cc2cccc(C(=O)N3CCOCC3)c2)CC1 [Compound 80]	79		-91	14	84.8	14	Catalepsy (%) ([7]; Pre-Reaction Time 240 min): 62.0%
COc1ccccc1N1CCN(Cc2cccc(C(=O)N3CCCCC3)c2)CC1 [Compound 84]	29		-98	42	18.8	42	Catalepsy (%) ([7]; Pre-Reaction Time 240 min): 33.9%
O=C(c1cccc(CN2CCN(c3ccc(Cl)cc3)CC2)c1)N1CCCCC1 [Compound 87]		not exhibited potential antipsychotic activity				28	activity in the SHR model [6]: active; drop in the mean arterial pressure [6]: 37 mm of mercury; duration of the drop in mean arterial pressure [6]: 5.75 h; onset of the drop in mean arterial pressure [6]: 0.25 h; CAR 15 mg/kg IP Administration (% change CAR) [4]: -5%; (Escape Loss) % failures to escape ([4]; at CAR 15 mg/kg IP): 0%
O=C(c1cccc(CN2CCN(c3ccccc3Cl)CC2)c1)N1CCCCCC1 [Compound 93]	18		-23	0	20.0	25	Catalepsy (%) ([7]; Pre-Reaction Time 240 min): 1.9%
CC(C)Oc1ccccc1N1CCN(Cc2ccccc2C(=O)N2CCCCC2)CC1.Cl.Cl [Compound 111, 1-[2-[[4-[2-(1-Methylethoxy)phenyl]-1-piperazinyl]methyl]benzoyl]piperidine Dihydrochloride]					52	11	Catalepsy (%) ([7]; Pre-Reaction Time 240 min): 50.7%
O=C(CCCN1CCC(O)(c2ccc(Cl)cc2)CC1)c1ccc(F)cc1 [Haloperidol, haloperidol, reference compound]							ED50 [8, 9]: 0.023 mg/kg; ED50 [8, 10]: 0.088 mg/kg; ED50 [8, 11]: 0.028 mg/kg
